Assay [1] concerns the target GDP-bound KRAS wild-type protein (Homo sapiens, UniProt P01116). Nature of the assay: Binding to KRAS by surface plasmon resonance (SPR), Single Cycle Kinetics. Particulars: GDP-bound KRAS wild-type protein, read-out: KRAS KD.
In assay [2] the target is GDP-bound NRAS wild-type protein (Homo sapiens, UniProt P01111). Nature of the assay: Binding to NRAS by surface plasmon resonance (SPR), Single Cycle Kinetics. Particulars: for NRAS/KRAS (ratio of KD value with respect to GDP-bound NRAS wild-type protein to KD value with respect to KRAS): SPR KD ratio NRAS/KRAS, class symbols. Background: SPR reads the build-up and loss of mass on a sensor chip optically.

The target of assay [3] is GDP-bound HRAS wild-type protein (Homo sapiens, UniProt P01112). Put plainly: Binding to HRAS by surface plasmon resonance (SPR), Single Cycle Kinetics. Particulars: for HRAS/KRAS (ratio of KD value with respect to GDP-bound HRAS wild-type protein to KD value with respect to KRAS): SPR KD ratio HRAS/KRAS, class symbols.
Where [4] appears, read: SPR Single Cycle Kinetics, 1:1 binding model.
[5] abbreviates: SPR, GDP-bound NRAS wild-type protein vs GDP-bound KRAS wild-type protein.
Where [6] appears, read: SPR, GDP-bound HRAS wild-type protein vs GDP-bound KRAS wild-type protein.

pKd: −log10 of the molar value. Where two headings read alike, the source gives them in different places. *1 amine or outer side, *2 acyl side, *3 side chain or, on linkers, in order; H or OH if unused. Where a SMILES comes first, the peptide text is derived from it. Bridges are numbered along the chain shown (N, C = ends). [ ]: non-standard residue; d: D form. The star is where a group is joined. hPhe(3,5-F2-4-CF3) = N[C@@H](CCc1cc(F)c(C(F)(F)F)c(F)c1)C(=O)O; hPhe(3-Cl-4-CF3) = N[C@@H](CCc1ccc(C(F)(F)F)c(Cl)c1)C(=O)O; NPrPhe(4-CF3) = CCCN[C@@H](Cc1ccc(C(F)(F)F)cc1)C(=O)O; X13 = O=C([C@@H](N[*:1])C1CC(F)(F)C1)[*:2]; Pip(4,4-F2) = O=C(O)[C@@H]1CC(F)(F)CCN1; NMeGly(cPent) = CN[C@H](C(=O)O)C1CCCC1; NMeD = CN[C@@H](CC(=O)O)C(=O)O; NMeL = CN[C@@H](CC(C)C)C(=O)O; Morpholide = C1CN(*)CCO1; Ac5c = NC1(C(=O)O)CCCC1; NEtG = CCNCC(=O)O; Sar = CNCC(=O)O

Broadly, the pKd is −log10 of the Kd, conventionally taken in molar units.

Sequence of GDP-bound NRAS wild-type protein (P01111 whole entry): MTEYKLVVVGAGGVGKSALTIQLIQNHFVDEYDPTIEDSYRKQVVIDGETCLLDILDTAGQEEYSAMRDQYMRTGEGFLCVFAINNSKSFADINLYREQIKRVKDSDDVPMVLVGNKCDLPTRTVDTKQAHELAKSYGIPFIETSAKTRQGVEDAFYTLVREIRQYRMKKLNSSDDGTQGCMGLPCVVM
Sequence of GDP-bound KRAS wild-type protein (P01116 whole entry): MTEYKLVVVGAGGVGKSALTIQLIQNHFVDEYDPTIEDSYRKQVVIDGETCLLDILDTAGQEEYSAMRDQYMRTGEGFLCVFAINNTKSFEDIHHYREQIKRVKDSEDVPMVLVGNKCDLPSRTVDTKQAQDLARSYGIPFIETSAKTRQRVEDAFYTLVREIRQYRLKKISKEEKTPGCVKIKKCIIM
Sequence of GDP-bound HRAS wild-type protein (P01112 whole entry): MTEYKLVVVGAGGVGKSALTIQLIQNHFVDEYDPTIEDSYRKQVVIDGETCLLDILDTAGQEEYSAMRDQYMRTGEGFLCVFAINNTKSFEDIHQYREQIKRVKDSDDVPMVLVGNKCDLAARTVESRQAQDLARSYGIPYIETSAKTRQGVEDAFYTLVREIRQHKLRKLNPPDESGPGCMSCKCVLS

Turning to `CCCN1C(=O)CN(C)C(=O)CN(C)C(=O)[C@H](C2CC(F)(F)C2)NC(=O)[C@H](CC(C)C)N(C)C(=O)C[C@@H](C(=O)N(C)C)N(C)C(=O)[C@H](C2CCCC2)N(C)C(=O)C2(CCCC2)NC(=O)[C@@H]2CCCN2C(=O)[C@H](CCc2cc(F)c(C(F)(F)F)c(F)c2)NC(=O)CN(C)C(=O)[C@@H]1Cc1ccc(C(F)(F)F)cc1` [PP0748] ([NMeL][X13][Sar][Sar][NPrPhe(4-CF3)][Sar][hPhe(3,5-F2-4-CF3)]P[Ac5c][NMeGly(cPent)][NMeD]-NMe2; lactam N-11), the negative logarithm of the Kd (pKd) in assay [1] (setting [4]) is 10.10. In addition, the “NRAS/KRAS (ratio of KD value with respect to NRAS to KD value with respect to KRAS)” value in assay [2] (setting [5]) is “B (a compound having 3 or more and less than 10 is denoted as B)”. Moreover, the “HRAS/KRAS (ratio of KD value with respect to HRAS to KD value with respect to KRAS)” value in assay [3] (setting [6]) is “B (a compound having 3 or more and less than 10 is denoted as B)”.

Consider `CCO[C@@H]1C[C@H]2C(=O)NC3(CCCC3)C(=O)N(C)[C@@H](C3CCCC3)C(=O)N(C)[C@H](C(=O)N(C)C)CC(=O)N(C)[C@@H](CC(C)C)C(=O)N[C@@H]([C@@H](C)CC)C(=O)N(C)CC(=O)N(C)[C@H]3C/C=C\CCN(C3=O)[C@@H](Cc3ccc(C(F)(F)F)cc3)C(=O)N(C)CC(=O)N[C@@H](CCc3ccc(Cl)c(Cl)c3)C(=O)N2C1` [PP2837], for which, in assay [1] (setting [4]), the pKd was 9.68. For the same compound, the “NRAS/KRAS (ratio of KD value with respect to GDP-bound NRAS wild-type protein to KD value with respect to KRAS)” value in assay [2] is reported as “AA (a compound having 20 or more is denoted as AA)”. In addition, the “HRAS/KRAS (ratio of KD value with respect to GDP-bound HRAS wild-type protein to KD value with respect to KRAS)” value in assay [3] was “A (a compound having 10 or more and less than 20 is denoted as A)”.

For the compound `CCC(CC)[C@H]1C(=O)N(C)[C@H](C(=O)N(C)C)CC(=O)N(C)[C@@H](COC)C(=O)N[C@@H]([C@@H](C)CC)C(=O)N(C)CC(=O)N(C)[C@H]2C/C=C\CCN(C2=O)[C@@H](Cc2ccc(C)cc2)C(=O)N(C)CC(=O)N[C@@H](CCc2ccc(Cl)c(Cl)c2)C(=O)N2C[C@H](OC3CCCC3)C[C@H]2C(=O)N(C)C2(CC(C)(C)C2)C(=O)N1C` [PP2818], the pKd in assay [1] (setting [4]) is 9.06. In addition, in assay [2], the “NRAS/KRAS (ratio of KD value with respect to GDP-bound NRAS wild-type protein to KD value with respect to KRAS)” value was “A (a compound having 10 or more and less than 20 is denoted as A)”. The “HRAS/KRAS (ratio of KD value with respect to GDP-bound HRAS wild-type protein to KD value with respect to KRAS)” value in assay [3] is “A (a compound having 10 or more and less than 20 is denoted as A)”.

Regarding `CCCN1C(=O)CN(C)C(=O)CN(CC)C(=O)[C@H]([C@@H](C)CC)NC(=O)[C@H](CC(C)C)N(C)C(=O)C[C@@H](C(=O)N2CCOCC2)N(C)C(=O)[C@H](C2CCCC2)N(C)C(=O)C2(CCCC2)NC(=O)[C@@H]2CC(F)(F)CCN2C(=O)[C@H](CCc2ccc(C(F)(F)F)c(Cl)c2)NC(=O)CN(C)C(=O)[C@@H]1Cc1ccc(C(F)(F)F)cc1` [PP0298] ([NMeL]I[NEtG][Sar][NPrPhe(4-CF3)][Sar][hPhe(3-Cl-4-CF3)][Pip(4,4-F2)][Ac5c][NMeGly(cPent)][NMeD]-Morpholide; lactam N-11), the pKd in assay [1] (setting [4]) was 8.52. Also, the “NRAS/KRAS (ratio of KD value for NRAS to KD value for KRAS)” value in assay [2] (setting [5]) is “B (a compound having 3 or more and less than 10 is denoted as B)”. In assay [3] (setting [6]), the “HRAS/KRAS (ratio of KD value for HRAS to KD value for KRAS)” value is “C (A compound having a KD ratio of 0.1 or more and less than 3 is denoted as C)”.

For `CCO[C@@H]1C[C@H]2C(=O)NC3(CC(C)(C)C3)C(=O)N(C)[C@@H](C(CC)CC)C(=O)N(C)[C@H](C(=O)N(C)C)CC(=O)N(C)[C@@H](CC3CCC3)C(=O)N[C@@H]([C@@H](C)CC)C(=O)N(C)CC(=O)N(C)[C@H]3C/C=C\CCN(C3=O)[C@@H](Cc3ccc(C)cc3)C(=O)N(C)CC(=O)N[C@@H](CCc3ccc(C(F)(F)F)c(OC)c3)C(=O)N2C1` [PP2172], the negative-log Kd (pKd) in assay [1] (SPR, Single Cycle Kinetics) was 9.29. Also, the “NRAS/KRAS (ratio of KD value for NRAS to KD value for KRAS)” value in assay [2] (setting [5]) is “A (a compound having 10 or more and less than 20 is denoted as A)”. Also, the “HRAS/KRAS (ratio of KD value for HRAS to KD value for KRAS)” value in assay [3] (setting [6]) is “B (a compound having 3 or more and less than 10 is denoted as B)”.
